The text below walks through data of patent US9538782B2, “Inhibition of sensory irritation during consumption of smokeless tobacco products using a combinatorial approach” (Altria Client Services LLC, priority 2013, dated 2017).

In one experiment the target is TRPV1 sensory channel (Homo sapiens, UniProt Q8NER1). Put plainly: TRPV1 activation in human tissue culture cells expressing the TRPV1 sensory channel. Format: cell-based. Conditions: activator capsaicin or camphor applied co-incident with curcumin or 5 minutes after curcumin. The method, then:
It will be further understood by those skilled in the art that active ingredients appropriate for use in the present smokeless tobacco product may function as antagonists to one or more receptors and/or channels and agonists to one or more receptors and/or channels. Compounds known to activate the TRPV1 channel were applied to human tissue culture cells expressing the TRPV1 sensory channel either co-incident with the application of curcumin or following the application of curcumin by 5 minutes. Camphor and capsaicin are both known activators of the TRPV1 channel. However, these two compounds activate the sensory channel by different mechanisms. Curcumin, on the other hand, is a potent antagonist of the TPRV1 sensory channel. When capasaicin or camphor were added to cells expressing the TRPV1 sensory channel with curcumin, TRPV1 sensory activation was inhibited.

The test system of the next experiment is sensory nerve fibers. The settings on record: isolated mouse trachea model; Kichco et al. 2007; cited from earlier work.
In a further experiment the test system is human subjects. Put plainly: human subject study of camphor added to pouches of smokeless tobacco. Format: in vivo. An excerpt:
Nicotine, for example, is an agonist of the nicotinic acetylcholine receptors, and can produce the sensory irritation, such as burning or stinging, in the mouth or throat, as well as the gastrointestinal discomfort sometimes associated with smokeless tobacco products.

Chain of TRPV1 sensory channel (Q8NER1 whole entry): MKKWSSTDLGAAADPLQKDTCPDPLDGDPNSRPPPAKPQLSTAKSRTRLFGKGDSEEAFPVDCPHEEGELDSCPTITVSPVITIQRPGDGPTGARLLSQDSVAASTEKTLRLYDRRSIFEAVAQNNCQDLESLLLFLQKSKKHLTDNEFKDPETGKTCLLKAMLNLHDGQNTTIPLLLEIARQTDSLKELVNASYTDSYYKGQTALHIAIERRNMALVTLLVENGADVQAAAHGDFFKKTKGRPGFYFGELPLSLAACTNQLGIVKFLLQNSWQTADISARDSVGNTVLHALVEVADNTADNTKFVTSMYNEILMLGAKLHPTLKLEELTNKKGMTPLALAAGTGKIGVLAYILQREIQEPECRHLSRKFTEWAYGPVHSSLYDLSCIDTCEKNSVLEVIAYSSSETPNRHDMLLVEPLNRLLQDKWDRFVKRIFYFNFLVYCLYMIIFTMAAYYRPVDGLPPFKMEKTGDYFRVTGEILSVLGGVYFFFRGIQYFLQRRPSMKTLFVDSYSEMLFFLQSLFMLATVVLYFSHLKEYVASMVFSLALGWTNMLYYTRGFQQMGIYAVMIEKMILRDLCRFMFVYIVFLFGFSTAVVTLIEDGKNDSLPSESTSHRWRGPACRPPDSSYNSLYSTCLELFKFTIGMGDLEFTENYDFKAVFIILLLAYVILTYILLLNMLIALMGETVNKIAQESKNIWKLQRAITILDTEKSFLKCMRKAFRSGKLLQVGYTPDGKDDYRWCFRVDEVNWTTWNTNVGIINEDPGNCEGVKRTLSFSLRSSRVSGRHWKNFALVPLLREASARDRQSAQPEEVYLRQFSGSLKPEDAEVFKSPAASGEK

For the compound `COc1cc(/C=C/C(=O)CC(=O)/C=C/c2ccc(O)c(OC)c2)ccc1O` [curcumin], on TRPV1 sensory channel, the TRPV1 sensory activation entry is “inhibited”.

`CC12CCC(CC1=O)C2(C)C` (stereo not drawn) [camphor]: the “activation of sensory nerve fibers induced by nicotine” value with sensory nerve fibers is recorded as “effectively inhibit”. Besides, the “sensation of burning at the pouch location and along the path of saliva that had been in contact with the pouch” value with human subjects is on record as “reduced the sensation of burning”.
